Measured values taken from patent publication US8865672B2, “Prevention of tissue ischemia and related methods” (The United States of America, as represented by the …, priority 2006, dated 2014).
Peptide text beside a SMILES is read from it.

Experiments:
[1] = test system: blood pressure and pulse in mice; test: Blood pressure and pulse measurements (tail cuff); assay type: in vivo, mouse
Procedure: Mean systolic, diastolic and arterial blood pressure (BP) and mean pulse was measured in age and sex matched mice using a computerized tail cuff system (Hatteras Systems, MC4000 Blood Pressure Analysis System, Cary, N.C.). The mice were allowed to acclimate to the apparatus for 5 min prior to the start of measurement. Each animal underwent a cycle of 10 preliminary and 50 experimental pressures measurements for data acquisition and data calculation. Animals were acclimated to the measuring system and protocol for 4 days with treatment with data acquisition being performed on the 5th day. Pressures recordings were performed at the same time each day. Data was accepted if the mouse had valid readings for at least 20 consecutive pulse beats. All studies were performed at the same hour each day.
Respirations were monitored continuously monitored by direct observation of the animal. Body core temperature was measured via rectal probe. Temperature control was performed using a water-circulating warming surface and heating lamp. Following a 15 minute period of stabilization mean systolic, diastolic and arterial blood pressure and mean pulse measurements were determined.

NO/cGMP signaling = test: cGMP signaling (NO-stimulated cGMP, immunoassay); assay type: cell-based, human; settings: concentration for 50% inhibition of effect
Procedure: Vascular cells (endothelial) or HT-1080 cells (10^4 cells/well) grown overnight in 12-well culture in SM-GM containing 2% FCS or RPMI+10% FCS respectively and then weaned off serum over 48 h before treatment with NO donors and other agents in serum/additive free medium+0.1% BSA. Intracellular cGMP levels were determined using an enzyme immunoassay (Amersham, GE Health Care, UK). In other experiments fresh washed human platelets were incubated in Tyrode's buffer and the indicated treatment agents±NO and cGMP determined.

human platelets [2] = test: Thrombin-induced human platelet aggregation; assay type: cell-based; settings: DEA/NO 10 μM
Procedure: Platelets were pelleted from platelet-rich plasma (PRP) by centrifugation for 10 minutes at 200 g. They were then washed with acid citrate dextrose (ACD) (85 mM citric acid, 65 mM sodium citrate, 100 mM glucose, pH 5.1) at a ratio of 1:7 at room temperature. After pelleting the platelets again and removing the supernatant, the platelets were resuspended in 5 mL of Tyrode's buffer (137 mM NaCl, 3 mM KCl, 12 mM NaHCO3, 0.3 mM NaHPO4, 2 mM CaCl2, 1 mM MgCl2, 5.5 mM glucose, 5 mM HEPES, 3.5 mg/mL BSA, pH 7.4). The final platelet number was adjusted to […] in 500 μl/cuvette of Tyrode's buffer.
Aggregation of human platelets under high shear conditions was assessed using a standard optical aggregometer (Lumi-Dual Aggregometer, Chrono-Log Corp., Havertown, Pa.) at 37° C. and 1200 rpm in a volume of 500 μl buffer with a final platelet concentration of 2×10^5 platelets/μl over a 5 minute interval. Pre-incubation with TSP1 and TSP1-based agents was for 15 minutes prior to addition of thrombin and/or the rapidly releasing nitric oxide donor DEA/NO. In some experiments platelets were pre-incubated with the Rap1 inhibitor GGTI-298 (10 μM) (Calbiochem, La Jolla, Calif.) for 30 minutes prior to initiating aggregation. In other high shear aggregation experiments murine platelets were prepared as above with the following modifications. Mouse blood was collected by retro-orbital bleeding of anesthetized mice using heparinized tubes. PRP was prepared and then diluted with 4 vol. of Tyrodes containing 5 mM EDTA to prevent activation. After collection by centrifugation, platelets were resuspended in 2× initial PRP volume and held at room temperature for less than 1 hour before use. Aggregation conditions consisted of 250 μL of washed platelets stirred at 1200 rpm in a Chronolog Optical aggregometer at 37° C. DEA/NO (10 μM) was added 30 seconds prior to activation and 8-BrcGMP added 15 min prior to activation with 0.2 U/ml human thrombin. Data was collected using Chronolog “Aggrolink” software. Platelet aggregation under static conditions was assessed using a spectrophotometer (Beckman DU 640, Beckman Coulter, Fullerton, Calif.) and determined as a change in absorbance at 400 nm with continuous observation over a five minute interval. The cuvette was inverted once every 60 seconds. Pre-incubation with TSP1 and TSP1-based agents was for 15 minutes prior to addition of thrombin and/or DEA/NO to minimize the formation of thrombin-serpinthrombospondin complexes (Chang & Detwiler, Arch Biochem Biophys. 299:100-104, 1992), which interfere with thrombin-platelet interactions.
Fresh human platelets were suspended in Tyrode's buffer and under low shear conditions thrombin-stimulated aggregation measured as described. Platelets were then treated with peptide C6d (1 μM)±NO (10 μM DEA/NO) and thrombin and aggregation measure.

HUVEC = test: NO-stimulated HUVEC adhesion on type I collagen; assay type: cell-based, human; settings: DEA/NO 10 μM, 1 h
Procedure: Cell adhesion was carried out in 96-well culture plates. After pre-coating wells with type I collagen (3 μg/ml in DPBS) harvested cells were plated at a density of 1×10^4 cells/well in medium plus 0.1% BSA and treatment agents and incubated in 5% CO2 for 1 h. Wells were washed with PBS and cells fixed with 1% glutaraldehyde for 10 min., washed and stained with 1% crystal violet for 20 min. Excess stain was rinsed away, adherent cells treated with 10% acetic acid, and plates read at 570 nm.

human platelets [3] = test: cGMP in human platelets; assay type: cell-based; settings: washed human platelets in Tyrode's buffer
Procedure: Fresh human platelets at 2×10^5 platelets/μl in Tyrode's buffer or PRP were pre-incubated with the indicated agents for 15 minutes and then challenged with DEA/NO for the indicated time interval at room temperature and total cGMP determined via immunoassay (Amersham, GE Healthcare, Buckinghamshire, UK). Murine WT and TSP1-null platelets were treated with DEA/NO and cGMP flux measured.

CCCN(CCCN)/[N+]([O-])=N/O [PAPA/NO]
mean arterial blood pressure response ([1]; CD47 null animals, i.p.): greatest drop in mean arterial blood pressure
blood pressure response ([1]; TSP1 null versus wild type, i.p.): drop in mean arterial pressure always greater in the absence of TSP1
mean pulse ([1]; after i.p. challenge): only modestly increased

C[C@H](N)C(=O)NCC(=O)N[C@@H](Cc1c[nH]c2ccccc12)C(=O)N[C@@H](CCCCN)C(=O)N[C@@H](CC(=O)O)C(=O)N[C@@H](Cc1ccccc1)C(=O)N[C@H](C(=O)N[C@@H](C)C(=O)N[C@@H](Cc1ccc(O)cc1)C(=O)N[C@@H](CCCNC(=N)N)C(=O)O)[C@@H](C)O [compound 37416, AGWKDFTAYR] (H-AGWKDFTAYR-OH)
IC50 (NO/cGMP signaling): ~1 µM

KRFYVVMWKK [4N1K, derivative of the 4N1-1 peptide with terminal lysines]
NO delay of thrombin-induced platelet aggregation (human platelets [2]; static / low shear conditions): prevented an NO-stimulated delay in platelet aggregation

FIRVAIYEGKK [compound 605, control peptide for 7N3]
NO delay of thrombin-induced platelet aggregation (human platelets [2]; high shear, thrombin 0.2 U/ml): no effect

CC(=O)N[C@@H](Cc1c[nH]c2ccccc12)C(=O)N[C@@H](CCCCN)C(=O)N[C@@H](CC(=O)O)C(=O)N[C@@H](Cc1ccccc1)C(=O)N[C@H](C(=O)N[C@@H](C)C(=O)N[C@@H](Cc1ccc(O)cc1)C(=O)N[C@@H](CCCNC(=N)N)C(=O)O)[C@@H](C)O [compound 37300, Ac-WKDFTAYR] (Ac-WKDFTAYR-OH)
IC50 (NO/cGMP signaling): ~1 µM

RFYVVMWK [4N1-1]
NO delay of thrombin-induced platelet aggregation (human platelets [2]; static / low shear conditions): prevented an NO-stimulated delay in platelet aggregation
NO-stimulated endothelial cell adhesion on type I collagen (HUVEC): inhibited NO-stimulated endothelial cell adhesion

IGWKAFTAYR [compound 37296]
cGMP signaling IC50 (NO/cGMP signaling): inactive

CC[C@H](C)[C@H](N)C(=O)NCC(=O)N[C@@H](Cc1c[nH]c2ccccc12)C(=O)N[C@@H](CCCCN)C(=O)N[C@@H](CC(=O)O)C(=O)N[C@@H](Cc1ccccc1)C(=O)N[C@@H](C)C(=O)N[C@@H](C)C(=O)N[C@@H](Cc1ccc(O)cc1)C(=O)N[C@@H](CCCNC(=N)N)C(=O)O [compound 37299, IGWKDFAAYR] (H-IGWKDFAAYR-OH)
IC50 (NO/cGMP signaling): > 10 µM

fibrinogen
NO delay of thrombin-induced platelet aggregation (human platelets [2]; high shear, thrombin 0.2 U/ml): no significant effect

FC(F)OC(Cl)C(F)(F)F (stereo not shown) [isoflurane, Isoflurane]
blood pressure under general anesthesia ([1]; TSP1-null animals): significant decreases in systolic, diastolic and mean arterial blood pressures
blood pressure under general anesthesia ([1]; wild type mice): very modest overall drop in mean arterial pressure

CC[C@H](C)[C@H](N)C(=O)NCC(=O)N[C@@H](Cc1c[nH]c2ccccc12)C(=O)N[C@@H](CCCCN)C(=O)N[C@@H](CC(=O)O)C(=O)N[C@@H](Cc1ccccc1)C(=O)N[C@H](C(=O)N[C@@H](C)C(=O)N[C@@H](C)C(=O)N[C@@H](CCCNC(=N)N)C(=O)O)[C@@H](C)O [compound 37555, IGWKDFTAAR] (H-IGWKDFTAAR-OH)
IC50 (NO/cGMP signaling): ~10 µM

IGWKDFTAYK [compound 37554]
cGMP signaling IC50 (NO/cGMP signaling): inactive

KRFKQDGGWSHWSPWSS [p246]
NO delay of thrombin-induced platelet aggregation (human platelets [2]; static / low shear conditions): inactive

RFYGGMWK [p4N1G, control peptide, VVM substituted by GGM]
NO-stimulated endothelial cell adhesion on type I collagen (HUVEC): did not significantly inhibit

FIRGGMYEGKK [compound 604, control peptide for 7N3]
NO delay of thrombin-induced platelet aggregation (human platelets [2]; high shear, thrombin 0.2 U/ml): no effect

E123CaG-1: recombinant C-terminal domains of TSP1
NO stimulated cGMP in platelets (human platelets [3]): inhibited NO stimulated cGMP flux
NO delay of thrombin-induced platelet aggregation (human platelets [2]; high shear, thrombin 0.2 U/ml): blocked the ability of NO to delay thrombin-induced aggregation
NO delay of thrombin-induced platelet aggregation (human platelets [2]; static / low shear conditions): reversed the NO delay of aggregation under static conditions

fibronectin [reference compound]
NO stimulated cGMP in platelets (human platelets [3]): no inhibition
NO delay of thrombin-induced platelet aggregation (human platelets [2]; high shear, thrombin 0.2 U/ml): no significant effect

VTAGGGVQKRSRL [p906]
NO delay of thrombin-induced platelet aggregation (human platelets [2]; static / low shear conditions): reversed an NO-stimulated delay of platelet aggregation
NO-stimulated endothelial cell adhesion on type I collagen (HUVEC): inhibited NO-stimulated endothelial cell adhesion

CC[C@H](C)[C@H](N)C(=O)NCC(=O)N[C@@H](Cc1ccc(O)cc1)C(=O)N[C@@H](CCCCN)C(=O)N[C@@H](CC(=O)O)C(=O)N[C@@H](Cc1ccccc1)C(=O)N[C@H](C(=O)N[C@@H](C)C(=O)N[C@@H](Cc1ccc(O)cc1)C(=O)N[C@@H](CCCNC(=N)N)C(=O)O)[C@@H](C)O [compound 37417, IGYKDFTAYR] (H-IGYKDFTAYR-OH)
IC50 (NO/cGMP signaling): ~0.1 µM

CC[C@H](C)[C@H](N)C(=O)NCC(=O)N[C@@H](Cc1c[nH]c2ccccc12)C(=O)N[C@@H](CCCCN)C(=O)N[C@@H](CCC(=O)O)C(=O)N[C@@H](Cc1ccccc1)C(=O)N[C@H](C(=O)N[C@@H](C)C(=O)N[C@@H](Cc1ccc(O)cc1)C(=O)N[C@@H](CCCNC(=N)N)C(=O)O)[C@@H](C)O [compound 37415, IGWKEFTAYR] (H-IGWKEFTAYR-OH)
IC50 (NO/cGMP signaling): 1 µM

CC[C@H](C)[C@H](N)C(=O)NCC(=O)N[C@@H](Cc1c[nH]c2ccccc12)C(=O)N[C@@H](CCCCN)C(=O)N[C@@H](CC(N)=O)C(=O)N[C@@H](Cc1ccccc1)C(=O)N[C@H](C(=O)N[C@@H](C)C(=O)N[C@@H](Cc1ccc(O)cc1)C(=O)N[C@@H](CCCNC(=N)N)C(=O)O)[C@@H](C)O [compound 37297, IGWKNFTAYR] (H-IGWKNFTAYR-OH)
IC50 (NO/cGMP signaling): > 10 µM

CC[C@H](C)[C@H](N)C(=O)NCC(=O)N[C@@H](Cc1c[nH]c2ccccc12)C(=O)N[C@@H](C)C(=O)N[C@@H](CC(=O)O)C(=O)N[C@@H](Cc1ccccc1)C(=O)N[C@H](C(=O)N[C@@H](C)C(=O)N[C@@H](Cc1ccc(O)cc1)C(=O)N[C@@H](CCCNC(=N)N)C(=O)O)[C@@H](C)O [compound 37413, IGWADFTAYR] (H-IGWADFTAYR-OH)
IC50 (NO/cGMP signaling): > 10 µM

CC[C@H](C)[C@H](N)C(=O)NCC(=O)N[C@@H](Cc1c[nH]c2ccccc12)C(=O)N[C@@H](Cc1c[nH]cn1)C(=O)N[C@@H](CC(=O)O)C(=O)N[C@@H](Cc1ccccc1)C(=O)N[C@H](C(=O)N[C@@H](C)C(=O)N[C@@H](Cc1ccc(O)cc1)C(=O)N[C@@H](CCCNC(=N)N)C(=O)O)[C@@H](C)O [compound 37414, IGWHDFTAYR] (H-IGWHDFTAYR-OH)
IC50 (NO/cGMP signaling): > 10 µM
